Test results from patent US20100092560A1, “REDUCED COENZYME Q10-CONTAINING PARTICULATE COMPOSITION AND METHOD FOR PRODUCING THE SAME” (KANEKA CORPORATION, priority 2007, published 2010).

Experiment: Preservation test: residual ratio of reduced coenzyme Q10 (oxidative stability, HPLC)
Format: physicochemical
Conditions: powder preserved for 30 days at 40° C. under shading conditions
Method: The purity of reduced coenzyme Q10, the weight ratio (%) of oxidized coenzyme Q10 and reduced coenzyme Q10 and the like were determined by the following HPLC analysis. The HPLC analysis conditions are described below.
column: SYMMETRY C18 (manufactured by Waters) 250 mm (length) 4.6 mm (inner diameter), mobile phase; C2H5OH/CH3OH=4/3(v/v), detection wavelength; 210 nm, flow rate; 1.0 ml/min, retention time of reduced coenzyme Q10; 9.1 min, retention time of oxidized coenzyme Q10; 13.3 min.

COc1c(O)c(C)c(C/C=C(\C)CC/C=C(\C)CC/C=C(\C)CC/C=C(\C)CC/C=C(\C)CC/C=C(\C)CC/C=C(\C)CC/C=C(\C)CC/C=C(\C)CCC=C(C)C)c(O)c1OC [reduced coenzyme Q10 powder, reduced coenzyme Q10]
residual ratio of reduced coenzyme Q10: 28%
